In PMC9369610, “Pro-Apoptotic and Pro-Autophagic Properties of Cardenolides from Aerial Parts of Pergularia tomentosa” (Molecules, 2022):

Assays:
[1] = test system: MRC5 cells; assay: MTT cell viability assay, IC50 in MRC5 cells; type: cell-based; settings: Homo sapiens, 24 h, SE less than 10% of value
Protocol: (§1) The human liver hepatocellular carcinoma cell line, HepG2, and the human adenocarcinoma of colon cell line, Caco-2, were cultured in Eagle’s Minimum Essential medium supplemented with 1% (v/v) non-essential amino acids, 0.2 mM L-glutamine, 50 units/mL penicillin, 50 μg/mL streptomycin and 10% (v/v) or 20% (v/v) fetal bovine serum (Sigma Aldrich, Milan, Italy) for HepG2 or Caco-2, respectively. The human embryonal lung fibroblast cell line, MRC5, was cultured in Dulbecco’s Modified Eagle medium (Sigma Aldrich, Milan, Italy) supplemented with 10% (v/v) fetal bovine serum, 0.2 mM L-glutamine, 50 units/mL penicillin and 50 μg/mL streptomycin. HUVEC cells were cultured in endothelial growth medium-2, supplemented with fetal bovine serum (2%), VEGF (0.1%), rH FGF-B (0.4%), rH EGF (0.1%), GA-1000 (0.1%), hydrocortisone (0.04%), R3-IGF-1 (0.1%), heparin (0.1%) and ascorbic acid (0.1%). Cells were maintained at 37 °C in a 5% CO2, 95% air-humidified atmosphere and passaged twice a week. Cell lines were obtained from Interlab Cell Line Collection, Istituto Nazionale per la Ricerca sul Cancro, Genoa, Italy. HUVEC were obtained from Lonza (Milan, Italy).
(§2) An MTT assay was used to analyse cell viability. Cells were seeded in 96 wells at the density of 2 × 10^4/cm^2 and, after 24 h, they were treated with P. tomentosa compounds or with the vehicle (DMSO). After a further 24 h of treatment, 0.5 mg/mL of MTT was added to the cell medium and incubated for 1.5 h at 37 °C. The resulting formazan crystals were dissolved in 100 μL of DMSO and absorbances were measured at 595 nm and 655 nm. The background signals at 655 nm were subtracted from 595 nm signals, and data were expressed as a percent of cell viability. The concentration of each compound that is required for 50% inhibition in vitro (IC50) was calculated as described in Husseini et al.. IC50 values were obtained for Caco-2, HepG2 and MRC5 cells by performing MTT assays with concentrations ranging from 0.01 μg/mL to 5 μg/mL.

[2] = test system: Caco-2 cells; assay: MTT cell viability assay, IC50 in Caco-2 cells; type: cell-based; settings: Homo sapiens, 24 h, SE less than 10% of value
Protocol: as §1, §2

[3] = test system: HepG2 cells; assay: Scratch-wound-healing assay; type: cell-based, human; settings: HepG2, 1 μM, 24, 48 and 72 h
Protocol: Cells were seeded at a density of 5 × 10^4 cells/well in 24-well plates and allowed to grow for 72 h, reaching confluence. Mitomycin C (10 μg/mL) was added to inhibit proliferation, and then a sterile 2–10 μL pipette tip was used to perform a vertical scratch in the monolayer of each well. Detached cells were removed by washing with phosphate-buffered saline. Then, 300 μL of fresh medium containing P. tomentosa compounds (1 μM) or vehicle was added to each well and incubated for 72 h. Images of migrating cells were taken at 0, 24, 48 and 72 h, by using an Olympus CKX41 fluorescent microscope (Olympus Italia srl, Segrate, Italy) and elaborated by the ImageJ software. For each scratch, wound width was calculated as the average distance between the edges in four different sites. Then, reductions in wound wights at 24, 48 and 72 h were expressed as % of the width at time zero.

[4] = test system: HepG2, Caco-2, MRC5 and HUVEC cells; assay: MTT assay, comparison of cytotoxic effects at 1 μM on four cell types; type: cell-based, human; settings: 24 h, Caco-2, HepG2, MRC5, HUVEC
Text: We focused attention on 12β,6′-dihydroxycalotropin (1), 16α-hydroxycalotropin (2), 12β-hydroxycalactin (3), calotropin (4), and calactin (5), among those described by Hosseini et al., and tested their cytotoxic activity by a 3-(4,5-dime-thylthiazol-2-yl)-2,5-diphenylte-tetrazolium bromide (MTT) assay on two cancer cell lines (HepG2 and Caco-2), not previously employed, on an immortalised nontumoral cell line (MRC5) and normal primary cells (HUVEC).
Figure 2 Comparison of cytotoxic effects of P. tomentosa compounds on cancer cell lines (Caco-2 and HepG2), on an immortalised cell line (MRC5) and normal cells (HUVEC). Cells were treated for 24 h with 1 μM of each compound. Residual viability was measured by the MTT assay. Values are the means ± standard error (SE) of three independent experiments performed in triplicate. Statistical analysis was performed using the Student’s t-test. * p < 0.05 and ** p < 0.01 vs. cells treated with the vehicle (DMSO).
as §1, §2

## C[C@@H]1C[C@@H](O)[C@]2(O)O[C@@H]3C[C@@]4(C=O)[C@@H](CC[C@@H]5[C@@H]4CC[C@]4(C)[C@@H](C6=CC(=O)OC6)CC[C@]54O)C[C@H]3O[C@@H]2O1 [Compound 5, calactin]
[1]
  IC50: 990 nM
[2]
  IC50: 650 nM
[3]
  effect on wound closure: interfered with the wound closure after 48 and 72 h
[4]
  relative cytotoxicity (residual viability, MTT): most cytotoxic
